Experiment [1] concerns Medlar PPO. Details: method as in doi:10.1016/S0308-8146(01)00359-4. As to conditions: substance as substrate, ref [51], cited from earlier work; for Vmax: asterisked values.
Experiment [2] relates to PPO from butter lettuce. Details: method as in doi:10.1016/j.foodchem.2007.07.068. As to conditions: substance as substrate; ref [38]; cited from earlier work.
Experiment [3] has as its system PPO from Chinese parsley. Details: method as in PMID 30263491. As to conditions: substance as substrate; ref [50]; cited from earlier work.
In experiment [4] the test system is PPO from persimmon fruits. Details: method as in doi:10.1016/j.foodchem.2003.07.022. As to conditions: substance as substrate, ref [47], cited from earlier work; for Vmax: asterisked values.
The test system of experiment [5] is PPO from Laccaria laccata (LacPPO). Details: method as in doi:10.1111/jfbc.12605. As to conditions: substance as substrate; ref [43]; cited from earlier work.
Experiment [6] concerns PPO from Sarali plum. Details: method as in doi:10.1007/s11694-024-02663-y. As to conditions: substance as substrate; ref [39]; cited from earlier work.
For experiment [7], the system named is polyphenol oxidase (PPO) from sickleweed. Briefly: Substrate kinetics of sickleweed PPO (Lineweaver-Burk). The format is biochemical, Falcaria vulgaris Bernh. As to conditions: substance as substrate; optimum pH and temperature. The protocol:
(§1) PPO activity was determined by measuring the increase in absorbance at 496 nm for 4-methylcatechol and 500 nm for catechol and DHPPA with a UV–Vis spectrophotometer. PPO activity was detected by the increment in absorbance in 1 min by adding 100 μL of the substrate (100 mM), 100 μL of 3-Methyl-2-benzothiazolinone hydrazone (MBTH, 10 mM), 20 μL of Dimethylformamide (DMF), 680 μL of 50 mM pH 5.0 acetate buffer, and finally 100 μL of the enzyme. The blank contains all solutions, excluding the enzyme. The enzyme unit is defined as the amount of the enzyme producing an absorbance increase of 0.001 per minute in 1 mL of the reaction mixture. The specific activity of PPO was defined as units per mg of protein [64].
To determine substrate specificity, catechol (0.2–20 mM), 4-methylcatechol (0.2–20 mM), and DHPPA (0.2–20 mM) concentrations were studied. Enzyme activity was carried out at optimum temperature and pH. The kinetic data were analyzed in terms of 1/activity (1/V) and 1/substrate concentration ([S]). The Michaelis-Menten constant (Km) and the maximum velocity (Vmax) were computed by plotting the Lineweaver-Burk graph. The catalytic efficiency ratio (Vmax/Km) was used as a criterion to evaluate substrate specificity.

Experiment [8] has the same test system. Briefly: Inhibition of PPO purified from sickleweed, 4-methylcatechol substrate. Format: biochemical, Falcaria vulgaris Bernh. As to conditions: substrate 4-methylcatechol; for Inhibition type / Ki: Lineweaver-Burk plots; for IC50: optimum conditions. The protocol:
as §1
The common inhibitors of PPO were preferred to study the inhibitory effects on PPO activity. For the 4-methylcatechol substrate, sodium metabisulphite (0.005–0.1 mM), citric acid (5–60 mM), and ascorbic acid (0.005–0.04 mM) inhibitors were utilized to determine enzyme activities under optimum conditions. The half maximal inhibitory concentration (IC50), which halves the enzyme activity, was calculated using the graph of percentage residual activity (%) versus inhibitor concentration (enzyme activity in the absence of inhibitor was accepted as one hundred percent). Then, enzyme activities were studied at five substrate concentrations and three inhibitor concentrations under optimum conditions. The Lineweaver-Burk graphs were drawn by calculating 1/V and 1/[S] values with the obtained data. From these graphs, inhibition constant (Ki) values were calculated for each inhibitor, and the inhibition type was determined.

Experiment [9] concerns PPO from broccoli florets. Details: method as in doi:10.1016/j.foodchem.2007.05.012. As to conditions: substrate 4-methylcatechol; ref [61]; cited from earlier work.
Experiment [10] deals with PPO from purslane. Also on record: method as in doi:10.1590/1678-457x.03216. As to conditions: substrate catechol; ref [21]; cited from earlier work.
In experiment [11] the test system is PPO from tea leaf. Also on record: method as in doi:10.1007/s11694-019-00264-8. As to conditions: substrate catechol; ref [40]; cited from earlier work.
Experiment [12] concerns PPO from Sarali plum. Also on record: method as in doi:10.1007/s11694-024-02663-y. As to conditions: substrate 4-methylcatechol; ref [39]; cited from earlier work.

SMILES strings stand for the structures. Marks after values point to notes of the source that are not given here.

On to `Oc1ccccc1O` [Catechol, catechol], for which the Vmax in experiment [1] is listed as 88.0 * μM/min; in [2] it was 4081 ± 8 EU·mL^−1·min^−1; in [3], 2000 EU·mL^−1·min^−1; in experiment [4], 55.2 * μM/min; in [6] it was 914.14 ± 83.45 EU·mL^−1·min^−1; in [7] it was 10,000 EU·mL^−1·min^−1. In addition, the Km in [1] was 5.7 mM; in [2], 3.2 ± 0.01 mM; in [3], 31 mM; in experiment [4] it was 12.4 mM; in experiment [5], 0.25 mM; in experiment [6], 1.16 ± 0.12 mM. Moreover, the Km in experiment [7] came out at 5 mM.
On to `Cc1ccc(O)c(O)c1` [4-Methylcatechol, 4-methylcatechol], for which the Vmax in [1] was 130 * μM/min; in [2], 5405 ± 4 EU·mL^−1·min^−1; in experiment [3], 1428.57 EU·mL^−1·min^−1; in [4] it was 49.5 * μM/min; in experiment [6], 2333.33 ± 288.68 EU·mL^−1·min^−1; in [7], 5000 EU·mL^−1·min^−1. The Km was 7.5 mM in experiment [1]; 1 ± 0.09 mM in [2]; 37.4 mM in experiment [3]; 14.6 mM in experiment [4]; 0.4 mM in [5]; 4.75 ± 0.66 mM in experiment [6]. For the same molecule, in [7], the Michaelis constant (Km) came out at 2 mM.
In the case of `O=C(O)CC(O)(CC(=O)O)C(=O)O` [Citric acid, citric acid], the Inhibition type result in [8] is “Competitive”; in experiment [9], “Noncompetitive”; in experiment [10] it was “Uncompetitive”. For the same molecule, the Ki in experiment [8] was 8370 µM; in [8] (listed as citric acid), 8730 µM; in [9], 74 µM; in [10], 4470 µM. Moreover, the midpoint of inhibition in experiment [8], the IC50, lay at 32000 µM.
Turning to `O=S(O)S(=O)(=O)O` [Sodium metabisulfite, sodium metabisulfite], in experiment [8], the Inhibition type entry is “Noncompetitive”, the Ki was determined as 23.7 µM and the IC50 was found to be 27 µM. In addition, in experiment [11], the IC50 was 21.7 µM, the Inhibition type entry is on record as “Noncompetitive” and the Ki was 19.3 µM.
Turning to `O=C1O[C@H]([C@@H](O)CO)C(O)=C1O` [Ascorbic acid, ascorbic acid], the Inhibition type entry in [8] is “Competitive”; in experiment [9] it was “Noncompetitive”; in experiment [11] it was “Competitive”; in experiment [10], “Noncompetitive”; in [12], “Competitive”. The inhibition constant (Ki) in [8] was 10.1 µM; in experiment [9], 88 µM; in experiment [11], 32.7 µM; in experiment [10] it was 360 µM; in experiment [12] it was 9.5 µM. Moreover, the half-inhibitory concentration (IC50) in experiment [8] is 26 µM; in experiment [11] it was 69.3 µM; in experiment [12], 38 ± 1 µM.
`O=C(O)CCc1ccc(O)c(O)c1` [DHPPA, 3,4-Dihydroxyphenylpropionic acid]: the figures for the Vmax in experiment [1], in experiment [4] and in experiment [7] were 7.2 * μM/min, 17.2 * μM/min and 14,285.71 EU·mL^−1·min^−1, respectively. In addition, the Km was 1.9 mM in experiment [1], 12.8 mM in experiment [4] and 11.4 mM in experiment [7].

The term Km denotes the concentration of substrate that gives half-maximal velocity. One may read the Ki as the dissociation constant of the complex between target and ligand, obtained from inhibition or displacement. Broadly, the IC50 is the concentration at which inhibition is half-maximal.

The values are drawn from publication PMC12735778, “Purification and Biochemical Characterization of Polyphenol Oxidase from Falcaria vulgaris Bernh” (Molecules, 2025).
